Earlier results, collected in patent publication US20250099444A1, “Methods of Treating a Subject for Long-Haul COVID-19, and Compositions for Use in the Same” (IncellDx, Inc., priority 2022, published 2025).

System: R5-tropic HIV-1

Cc1nnc(C(C)C)n1[C@@H]1C[C@H]2CC[C@@H](C1)N2CC[C@H](NC(=O)C1CCC(F)(F)CC1)c1ccccc1 [maraviroc, 4,4-difluoro-N-[(1S)-3-[(1S,5R)-3-(3-methyl-5-propan-2-yl-1,2,4-triazol-4-yl)-8-azabicyclo[3.2.1]octan-8-yl]-1-phenylpropyl]cyclohexane-1-carboxamide]
incidence of hepatoxicity (MOTIVATE study) (96 weeks of treatment at 300 mg B.I.D): low incidence of hepatoxicity | death and other health threats, long-term follow-up of MOTIVATE trials (>5 year follow-up, HIV patients): limited instances of death and other health threats such as hepatic failure and myocardial infarctions | HIV viral loads (MOTIVATE 1 and MOTIVATE 2) (individuals with R5-tropic HIV-1): lower levels of HIV viral loads
